From US20140050779A1, “[…]-2 INHIBITORS AND USES THEREOF” (SINGAPORE HEALTH SERVICES PTE. LTD., priority 2011, published 2014)

Tests used:
TG-2 [1] = assay: TG-2 colorimetric microassay (transamidase activity) in lysate of treated human scleral fibroblasts; assay type: cell-based; settings: for transamidase activity of endogenous cellular TG-2: human scleral fibroblasts, 0.1, 1, 10 and 100 μM for 5 days, concentration-dependent
Protocol: (§1) All cells used in examples described herein were between passages 2-4. Passaged cells were plated at a concentration of 2×10^5/mL into 6 well plates containing DMEM with 10% FBS. […] Old media was removed from wells and 1 mL of drug was added with fresh full medium and incubated at 37° C. Fresh drugs were replaced daily consecutively for the next 5 days to avoid oxidation. The drugs/media was removed and wells were washed twice with 1×PBS. 200 μl of RIPA lysis buffer was added per well and incubated for 5 minutes and cells were scrapped into an eppendorf tube. The cells were stored at −20° C. until sonication. The cells were sonicated on ice thrice at 20% output power for 5 seconds each time and rested 1 minute in between each turn. Cell debris was spun down at 12000 rpm for 20 minutes. The supernatant was poured into a new eppendorf tube and cell concentrations were determined using the Dc Protein assay Kit (Bio-Rad, MA). Passaged cells were plated at a concentration of 1×10^5 into 6 well plates containing DMEM with 10% FBS. […] Freshly prepared muscarinic agents' at base line, 0.1, 1, 10 and 100 μM concentrations were added for 5 days (Table 2). The culture medium was removed and fresh medium containing the same muscarinic drug added every day to avoid drug changes such as atropine oxidation. Cell lysate was collected for relative quantitative (q) PCR and protein analysis at day 5.
(§2) This assay was designed to assess the cross-linking activity of TG-2 between two proteins. TG activity was measured with TG-2 colorimetric Microassay kit (TG-Covtest, Covalab, Cambridge, UK). 150-200 μg of total protein was used per well for the TG-2 assay. Transglutaminase standards (Sigma) were used as a positive control. EDTA was used to inhibit the enzyme activity as a negative control.
(§3) The approximate volume of reagents to use, the wavelengths to use to read absorbance, the incubation times were determined from a previous study that have carried out experiments with similar principles as described in Perez Alea M, Kitamura M, Martin G, Thomas V, Hitomi K, El Alaoui S., “Development of an isoenzyme-specific colorimetric assay for tissue transglutaminase 2 cross-linking activity”, Anal Biochem. 2009 Jun. 15; 389(2):150-6, Epub 2009 March 24. All reagents used and protein coated plates were part of the kit. Biotin cadaverine was reconstituted with 6 ml of deionized water and 90 μl was added into each well of the 96 well plate that comes coated with CBZ-GLN-GLY. The rest of the steps were followed as in the manufacturer's instructions and finally absorbance was read at 450 nm using a microplate reader (TECAN, Austria). All incubations were performed with gentle shaking on a laboratory orbital shaker.
(§4) The TG-2 colorimetric assay serves as a high throughput and quantitative assay to assess transamidase activity. […] In vivo studies with these drugs were also conducted to determine the effect on myopia development (see FIGS. 14 and 15).

TG-2 [2] = assay: Western blot of TG proteins in human scleral fibroblasts after muscarinic agents; assay type: cell-based; settings: very low concentrations
Protocol: (§5) All cells used in examples described herein were between passages 2-4. Passaged cells were plated at a concentration of 2×10^5/mL into 6 well plates containing DMEM with 10% FBS. The cells were seen to attach to the bottom of the culture wells after 4 hours. Old media was removed from wells and 1 mL of drug was added with fresh full medium and incubated at 37° C. Fresh drugs were replaced daily consecutively for the next 5 days to avoid oxidation. The drugs/media was removed and wells were washed twice with 1×PBS. 200 μl of RIPA lysis buffer was added per well and incubated for 5 minutes and cells were scrapped into an eppendorf tube. The cells were stored at −20° C. until sonication. The cells were sonicated on ice thrice at 20% output power for 5 seconds each time and rested 1 minute in between each turn. Cell debris was spun down at 12000 rpm for 20 minutes. The supernatant was poured into a new eppendorf tube and cell concentrations were determined using the Dc Protein assay Kit (Bio-Rad, MA). Passaged cells were plated at a concentration of 1×10^5 into 6 well plates containing DMEM with 10% FBS. The cells were seen to attach to the bottom of the culture wells after 4 hours. Freshly prepared muscarinic agents' at base line, 0.1, 1, 10 and 100 μM concentrations were added for 5 days (Table 2). The culture medium was removed and fresh medium containing the same muscarinic drug added every day to avoid drug changes such as atropine oxidation. Cell lysate was collected for relative quantitative (q) PCR and protein analysis at day 5.
(§6) The cells were lysed by sonification in 1×RIPA lysis buffer (santa cruz biotechnology, Sc-24948) with 10 μl PMSF solution, 10 μl sodium orthovanadate solution and 20 μl protease inhibitor cocktail solution. After centrifugation at 20,000×g at 4° C. for 20 minutes, and the supernatant collected. The protein content in the supernatants was measured using the DC Protein Assay kit (Bio-Rad, MA) following the manufacturer's instructions. Samples were stored at −80° C. until assayed.
(§7) The mouse and human scleral fibroblasts were treated with atropine or carbachol at 0.01, 0.1, 1, 5 and 10 μM concentrations for 5 days. Following 5 days of treatment, the total cellular protein was extracted from these cells and TG proteins detected via Western blot analysis.
Human and, mouse scleral fibroblast proteins in the supernatant were separated by SDS-PAGE, transferred to nitrocellulose membranes, blocked in 5% BSA in TBST (10 mM Tris-HCl [pH 8.0], 150 mM NaCl, and […] Tween-20) for 2 hours at room temperature, and incubated with the same anti-TG-2 antibody described herein at a dilution of 1:1000 and anti β-tubulin antibodies used as a positive control, for 1 hour at room temperature. […]

TG-2 [3] = assay: TG-2 colorimetric microassay (transamidase activity) in lysate of treated mouse scleral fibroblasts; assay type: cell-based; settings: for transamidase activity of endogenous cellular TG-2: mouse scleral fibroblasts, 0.1, 1, 10 and 100 μM for 5 days, concentration-dependent
Protocol: as §1, §2, §3, §4

[4] = test system: mouse eyes treated with −15D spectacle lens; assay: spectacle lens-induced myopia in mice, axial length and refractive error; assay type: in vivo; settings: lens with 0.1% drug; for axial length: 2 weeks and 4 weeks, vs lens treated eyes; for refractive error: infrared photorefractor
Protocol: Topical applications were administered to both eyes at the same time each day (approximately 9:00 AM) commencing on the 12th day (initiation of spectacle lens treatment). A compatible drug level was determined prior to the in vivo use in a tissue culture study with mouse scleral fibroblasts. […] This treatment schedule continued for four weeks starting on post-natal day 12 continued until post-natal day 42. All measurements were taken at post-natal day 42, the equivalent of 4 weeks of spectacle lens wear.
Each eye was refracted every week to measure the refractive error using automated infrared photorefraction as described in Barathi, V. A., Beuerman, R. W., Schaeffel, F., 2009a, “Effects of unilateral topical atropine on binocular pupil responses and eye growth in mice”, Vision Res 49, 383-387. By using Optical Low Coherence Interferometry (OLCI, AC Master, Carl-Zeiss), the axial length of the eye was measured in-vivo as described in Yin G C, Gentle A, McBrien N A, “Muscarinic antagonist control of myopia: a molecular search for the M1 receptor in chick”, Mol. Vis. 2004; 13(10):787-93 and Barathi, V. A., Boopathi, V. G., Yap, E. P., Beuerman, R. W., 2008, “Two models of experimental myopia in the mouse”, Vision Res 48, 904-916. […] Differences of refractive power and axial length between eyes were calculated. Independent t-tests were used to compare experimental and control eyes in wild type and TGM2-deleted or M1-M5 mutant mice.
Right eyes were experimental and left eyes served as contra-lateral control. In vivo axial length was measured at 2 weeks and 4 weeks after treatment. […] Automated infrared photorefractor was used to measure the refractive error measurements.

TG-2 [5] = assay: Western blot of TG proteins in mouse scleral fibroblasts after muscarinic agents; assay type: cell-based; settings: very low concentrations
Protocol: as §5, §6, §7
Human and, mouse scleral fibroblast proteins in the supernatant were separated by SDS-PAGE, transferred to nitrocellulose membranes, blocked in 5% BSA in TBST (10 mM Tris-HCl [pH 8.0], 150 mM NaCl, and […] Tween-20) for 2 hours at room temperature, and incubated with the same anti-TG-2 antibody described herein at a dilution of 1:1000 and anti β-tubulin antibodies used as a positive control, for 1 hour at room temperature. The membranes were washed 3 times in TBST and incubated with HRP-conjugated secondary antibody (Chemicon International) at a dilution of 1:2500 for 1 hour at room temperature. Immunoreactive bands were visualized using the enhanced chemiluminescence method (GE Healthcare, Buckinghamshire, UK). The membrane was wrapped in plastic and placed against an X-ray film to expose for an appropriate length of time (30 seconds-5 minutes).

cultured SF cells = assay: effect of TG-2 inhibitors on cultured scleral fibroblast growth (XCELLigence); assay type: cell-based; settings: for SF cell growth and cell numbers: 0.1 μM, 5 days; for SF cell growth and cell numbers at higher concentrations: above 0.1 μM, concentration dependent manner
Protocol: To test the effect of TG-2 inhibitors on cultured scleral fibroblast growth, cultured SF cells at passage 4 were treated with TG-2 inhibitors at baseline, 0.1, 1, 10 and 100 μM for 5 days. The SF cell growth was monitored by XCELLigence cell impedance.

Row | Compound | transamidase activity of endogenous cellular TG-2 (TG-2 [1]) | TG-2 protein level (reduction) (TG-2 [2]) | transamidase activity of endogenous cellular TG-2 (TG-2 [3]) | axial length [4] | refractive error [4] | TG-2 protein level (reduction) (TG-2 [5]) | SF cell growth and cell numbers (cultured SF cells) | SF cell growth and cell numbers at higher concentrations (cultured SF cells) | other results
1 | C[N+]1(C)CCC(OC(=O)C(c2ccccc2)c2ccccc2)CC1.[I-] [4-DAMP, 1,1-Dimethyl-4-diphenylacetoxypiperidinium iodide] | reduced | significant | reduced | significantly reduced | shifted from myopic to hyperoic | significant | – | – | –
2 | CCN(CC)CC1CCCCN1CC(=O)N1c2ccccc2C(=O)Nc2cccnc21 (stereo not shown) [AFDX-116] | reduced | – | reduced | – | – | – | – | – | –
3 | CC(=O)CSc1n(C)cc[n+]1C.[Cl-] [D003] | – | – | – | – | – | – | significantly reduced | further reduced | cell morphology (cultured SF cells): No change
4 | NC(=O)C(c1ccccc1)(c1ccccc1)[C@@H]1CCN(CCc2ccc3c(c2)CCO3)C1 [darifenacin] | reduced | significant | reduced | significantly reduced | shifted from myopic to hyperoic | significant | – | – | TG-2 activity, strongest reduction among the antagonists (TG-2 [1]; human scleral fibroblasts, all concentrations): most significantly reduced; TG-2 activity, strongest reduction among the antagonists (TG-2 [1]; human scleral fibroblasts, low concentrations): most significantly reduced; TG-2 activity as compared to atropine (TG-2 [1]; human scleral fibroblasts, himbacine 0.1, 1, 10 & 100 μM, darifenacin 0.1, 1 & 10 μM): more significantly reduced; TG-2 activity, strongest reduction among the antagonists (TG-2 [3]; mouse scleral fibroblasts, low concentrations): most significantly reduced
5 | CN1CCN(CC(=O)N2c3ccccc3C(=O)Nc3cccnc32)CC1 [pirenzepine] | reduced | – | reduced | – | – | – | – | – | –
6 | TAMRA-DON [R002] | – | – | – | – | – | – | significantly reduced | further reduced | –
